Several values for one entry are separate records, joined by “and”; a condition that tells them apart may be missing. Equal values may be shown once. Read-outs that look alike come from different tables or passages of the source.
How the values were obtained:
A. baumannii ATCC 19606 = tested on: A. baumannii ATCC 19606
Protocol: (§1) Synergy studies were performed by using polymyxin derivatives in combination with rifampin, a model compound for such antibacterial agents that the intact outer membrane of Gram-negative bacteria acts as a permeability barrier.

A. baumannii JMI 48125 = tested on: A. baumannii JMI 48125
Protocol: as §1

E. coli JMI 3328 = tested on: E. coli JMI 3328
Protocol: as §1

K. pneumoniae ATCC 43816 = tested on: K. pneumoniae ATCC 43816
Protocol: as §1

P. aeruginosa ATCC 27853 = tested on: P. aeruginosa ATCC 27853
Protocol: as §1

P. aeruginosa JMI 7445 = tested on: P. aeruginosa JMI 7445
Protocol: as §1

E. coli JMI 109 = assay: MIC assay (CLSI broth microdilution; checkerboard with rifampin); type: cell-based, Escherichia coli; conditions: in combination with rifampin (0.25 µg/mL), duplicate checkerboard assays; polymyxin-nonsusceptible strain
Protocol: as §1

K. pneumoniae JMI 27068 = assay: as above; type: cell-based, Klebsiella pneumoniae; conditions: in combination with rifampin (0.25 µg/mL), duplicate checkerboard assays; polymyxin-nonsusceptible strain
Protocol: as §1

[1] = 7-day intravenous toxicity (nephrotoxicity) study in cynomolgus monkeys; conditions: IV infusion TID; for animals euthanized due to severe nephrotoxic effects: seven days, 3 animals per group
Protocol: In vivo toxicity and toxicokinetic studies were performed by using cynomolgus monkeys. The laboratory that performed the animal studies is accredited by the Association for Assessment and Accreditation of Laboratory Animal Care (AAALAC), has an Animal Welfare Assurance issued by the Office of Laboratory Animal Welfare (OLAW), is registered with the United States Department of Agriculture (USDA), and has an Institutional Animal Care and Use Committee (IACUC) responsible for compliance with applicable laws and regulations concerning the humane care and use of laboratory animals.
Naive female cynomolgus monkeys were acclimatized to study room for 28 days during which each animal was implanted with a permanent indwelling femoral catheter to permit continuous intravenous infusions. The animals were allowed surgical recovery period of at least 2 weeks before initiating dosing.
Polymyxin B sulfate was from Sigma-Aldrich (catalogue number P0972, lot number BCBF8382V). On each day of use, appropriate quantities of NAB739, NAB815 or polymyxin B were weighed and dissolved in appropriate volumes of sterile saline to prepare a stock solution for each test article and positive control. A correction factor was used in the stock solution preparation to account for both the purity and sulfate content in each test article. Accordingly, the dose (such as 36 mg/kg/d) refers to the dose of the pure peptide as its free base form, not as its sulfate salt.
The doses were the following: polymyxin B 18 mg/kg/d (Group 1), polymyxin B 24 mg/kg/d (Group 2), NAB739 24 mg/kg/d (Group 3), NAB739 36 mg/kg/d (Group 4), NAB815 24 mg/kg/d (Group 5), NAB815 36 mg/kg/d (Group 6). Three animals were included in each study groups.
(§2) For seven days, the animals were dosed by intravenous (IV) infusion three times daily (TID) at a dose volume of 10 mL/kg for 1 hour (± 10 minutes), 8 ± 0.5 hours apart. The day of initial dose administration was designated study Day 1, with subsequent days consecutively numbered. Days prior to the initial dose administration were consecutively numbered with the final day of acclimation referenced as Day -1.
(§3) The following parameters were evaluated at designed intervals: clinical observations, body weights, clinical pathology (hematology, coagulation, serum chemistry, urinalysis including urine sediments and urine chemistry), toxi-cokinetics (plasma and urine) and anatomic pathology (kidney). In cases of animals sacrificed on an unscheduled basis, samples were taken on the day of the sacrifice.
On the day of necropsy, animals were sedated with ketamine, weighed, and anesthetized with an intravenous injection of a commercial pentobarbital and phenytoin solution, followed by exsanguinations.
At necropsy, gross observations and organ weights were recorded, and specific tissues were collected. Histopathology was conducted on sections of kidney stained with hematoxylin and eosin (H&E).
The figures also show Urine N-acetyl-β-D-glucosaminidase/urine creatinine ratio (U-NAG/Crea; Fig. 3) and Urine Gamma Glutamyltransferase/urine creatinine ratio (U-GGT/Crea; Fig. 4), both urine biomarkers for kidney injury, in those animals. S-Crea and U-Crea were measured by using an Olympus Analyzer (OA) and the modified Jaffe method, S-BUN by using OA and urease/L-glutamate dehydrogenase. U-NAG was measured by using OA/enzymatic, and U-GGT by using OA and glutamyl-carboxy-p-nitroanilide IFCC.
The presence of the following nephropathological parameters was recorded in each animal: tubular basophilia (regeneration), tubular degeneration/necrosis, infiltration (by mononuclear and/or mixed inflammatory cells), tubular dilatation, and tubular casts.

[2] = Toxicokinetics (plasma and urine levels by LC-MS/MS) in cynomolgus monkeys
Protocol: as §2, §3
Plasma and urine concentrations for toxicokinetic (TK) studies were determined by using liquid chromatograph interfaced with a mass spectrometer after precipitation of proteins. A sample (100 µL) was mixed with internal standard solution in water:formic acid (99:1 v/v; […]). Then, 600µL of 100:1 acetonitrile:formic acid was added. The plates were centrifuged at 3200 rpm for 5 minutes. Using a Tomtec Quadra96, a 450 µL aliquot was transferred to a new 96-well plate and dried under nitrogen at 40°C. Then, 200 µL of water:methanol:formic acid (85:15:1 1 v/v) was added and the plate sealed for LC-MS/MS injection. LC-MS system consisted of Waters Acquity liquid chromatograph interfaced with a Thermo Scientific TSQ Quantitative triple quadrupole MS with ionization in the positive ion mode. Each sample (20 µL) was injected onto a Waters Acquity BEH Shield RP18 column (2.1 x 50 mm; 1.7 µm) equilibrated at 50°C. Mobile Phase A was 85:15:1 v/v water:methanol:formic acid. Mobile Phase B was 50:50:1 v/v acetonitrile:methanol:formic acid.
Peak area ratios from the calibration standard responses were regressed using a (1/concentration^2) linear fit for polymyxin B using colistin as the internal standard. For NAB739 and NAB815, peak areas from the calibration standard responses were regressed using a (1/concentration^2) quadratic fit (without the use of an internal standard).
Toxicokinetic analysis was performed by using WinNonlin Phoenix version 6.3 software (Pharsight, Cary, NC). For plasma TK, noncompartmental IV infusion model was used.
The data is from the cynomolgus monkey studies described in the Example 3, where the peptides were administered as a 1-hour intravenous infusion thrice a day. The plasma and urine levels of the peptides were determined as in Example 3.

[3] = monkeys; cited from earlier work
[4] = patients, in selected materials; cited from earlier work
[5] = alone, Müller-Hinton II broth, 35°C, 20 hours
[6] = in combination with rifampin (0.25 µg/mL), duplicate checkerboard assays
[7] = the six animals at 18 mg/kg/d and 24 mg/kg/d

Substance: Polymyxin B
- MIC (A. baumannii ATCC 19606; [5]): 2 µg/mL
- MIC (A. baumannii ATCC 19606; [6]): 0.5 µg/mL
- MIC (A. baumannii JMI 48125; [5]): 2 µg/mL
- MIC (A. baumannii JMI 48125; [6]): 1 µg/mL
- MIC (E. coli JMI 3328; [5]): 2 µg/mL
- MIC (E. coli JMI 3328; [6]): 0.5 to 1 µg/mL
- MIC (K. pneumoniae ATCC 43816; [5]): 2 µg/mL
- MIC (K. pneumoniae ATCC 43816; [6]): 0.5 to 1 µg/mL
- MIC (P. aeruginosa ATCC 27853; [5]): 2 µg/mL
- MIC (P. aeruginosa ATCC 27853; [6]): 1 µg/mL
- MIC (P. aeruginosa JMI 7445; [5]): 2 µg/mL
- MIC (P. aeruginosa JMI 7445; [6]): 1 µg/mL
- MIC (E. coli JMI 109): 0.5 to 1 µg/mL
- MIC (K. pneumoniae JMI 27068): 1 µg/mL
- animals euthanized due to severe nephrotoxic effects ([1]; 18 mg/kg/d): all the three animals
- animals euthanized due to severe nephrotoxic effects ([1]; 24 mg/kg/d): Two animals
- S-BUN, S-Crea and U-GGT/Crea [1, 7]: remarkably increased
- U-NAG/Crea [1, 7]: remarkably increased in five of the animals
- concentration in the urine ([2]; after infusion at 8 mg/kg, highest found either in the 0-4 h or 4-8 h sample, given for each animal, 8 mg/kg): 7000 ng/mL and 9000 ng/mL and 15000 ng/mL
- 0-8 h recovery in urine ([2]; after the infusion of 8 mg/kg, percentages given for each animal, 8 mg/kg): 1 % of the dose and 2 % of the dose (2×)
- Area under the concentration-time from time 0 h to 8 h (AUCs 0-8h) ([2]; plasma, after the infusion of 8 mg/kg, day 1): 112 (SD=5) hr*µg/mL
- S-Crea and BUN response [3]: elicited a rapid onset of S-Crea and BUN response
- nephrotoxicity rate [4]: ≤ 55%

Reference: patent EP3045469A1, “POLYMYXIN DERIVATIVE AND USES THEREOF” (priority 2015, dated 2016)
